According to US10030027B2, “Soluble guanylate cyclase stimulators” (MERCK SHARP & DOHME CORP., priority 2015, dated 2018):

Assays:
sGC α1/β1 heterodimer = sGC α1/β1 heterodimer (Homo sapiens (Human), UniProt Q02108+Q02153); test: Cell-based sGC functional assay (cyclic GMP assay for sGC activator: CASA assay); design: % Activation: concentration or dose not given beside the values; settings: CHO-K1/sGC cells; for Emax: CHO-K1, activity expressed as percentage of compound A (standard), read-out: % Activation; for EC50: inflection point, 4P fit, read-out: IP; for % Activation: activity expressed as percentage of compound A (standard)
Procedure, shortened: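 CHO-K1 cells stably expressing sGC α1/β1 were pre-incubated with or without 1 μM DETA-NO (30 min, 25 °C), then exposed to compounds for 1 hr at 37 °C with 0.5 mM IBMX. Intracellular cGMP was read by HTRF and expressed as a percentage of a reference heme-dependent activator's maximum.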

[1] = target: human recombinant sGC enzyme (Homo sapiens (Human), UniProt Q02108+Q02153); test: Size Exclusion Chromatography (SEC) competition binding assay using [3H] Ex-77B as the radioligand; settings: [3H] Ex-77B radioligand, 24 hours at 37° C.
Procedure, shortened: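 Recombinant human sGC binding measured by competition against tritiated Ex-77B radioligand, with non-specific binding defined by 1 μM unlabeled Ex-77B.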

Structure (SMILES)	Emax (sGC α1/β1 heterodimer) [%]	EC50 (sGC α1/β1 heterodimer) [nM]	Ki [1] [nM]	% Activation (sGC α1/β1 heterodimer) [%]
Cc1cccc(Cn2nc(-c3nc(N)c4c(n3)NC(=O)C4(C)c3nc(CC(C)(C)C(=O)O)co3)c3ccccc32)c1F (stereo not shown) [Example 233A, 3-(2-{4-amino-2-[1-(2-fluoro-3-methylbenzyl)-1H-indazol-3-yl]-5-methyl-6-oxo-6,7-dihydro-5H-pyrrolo[2,3-d]pyrimidin-5-yl}-1,3-oxazol-4-yl)-2,2-dimethyl-propanoic acid]	141	204	0.083	–
CC1(c2ccc(CCS(=O)(=O)O)cc2)C(=O)Nc2nc(-c3nn(Cc4ccccc4F)c4cc(Cl)ccc34)nc(N)c21 (single isomer, unassigned) [Example 258B, 2-(4-{4-Amino-2-[6-chloro-1-(2-fluorobenzyl)-1H-indazol-3-yl]-5-methyl-6-oxo-6,7-dihydro-5H-pyrrolo[2,3-d]pyrimidin-5-yl}phenyl)ethanesulfonic acid]	–	1730	0.08	–
CC(C)(Cc1coc(C2(C)C(=O)Nc3nc(-c4nn(Cc5ncccc5F)c5cc(Cl)ccc45)nc(N)c32)n1)C(=O)O (stereo not shown) [Example 184A, 3-{2-[4-amino-2-{6-chloro-1-[(3-fluoropyridin-2-yl)methyl]-1H-indazol-3-yl}-5-methyl-6-oxo-6,7-dihydro-5H-pyrrolo[2,3-d]pyrimidin-5-yl]-1,3-oxazol-4-yl}-2,2-dimethyl-propanoic acid]	97.7	230	0.092	–
CC(C)(Cc1csc(C2(C)C(=O)Nc3nc(-c4nn(CCC(F)(F)F)c5ncc(F)cc45)nc(N)c32)n1)C(=O)O (stereo not shown) [Example 85A, 3-(2-{4-amino-2-[5-fluoro-1-(3,3,3-trifluoropropyl)-1H-pyrazolo[3,4-b]pyridin-3-yl]-5-methyl-6-oxo-6,7-dihydro-5H-pyrrolo[2,3-d]pyrimidin-5-yl}-1,3-thiazol-4-yl)-2,2-dimethylpropanoic acid]	130	700	1.5	–
CC1(c2ccc(CCc3nn[nH]n3)cn2)C(=O)Nc2nc(-c3nn(Cc4ccccc4F)c4cc(Cl)ccc34)nc(N)c21 (single isomer, unassigned) [Example 247A, 5-{5-[2-(2H-tetrazol-5-yl)ethyl]pyridin-2-yl}-4-amino-2-[6-chloro-1-(2-fluorobenzyl)-1H-indazol-3-yl]-5-methyl-5,7-dihydro-6H-pyrrolo[2,3-d] pyrimidin-6-one]	–	4020	0.242	–
CC1(c2ccc(CCC(=O)O)c(C#N)c2)C(=O)Nc2nc(-c3nn(CCC(F)(F)C(F)(F)F)c4cc(Cl)ccc34)nc(N)c21 (stereo not shown) [Example 120B, 3-(4-{4-Amino-2-[6-chloro-1-(3,3,4,4,4-pentafluorobutyl)-1H-indazol-3-yl]-5-methyl-6-oxo-6,7-dihydro-5H-pyrrolo[2,3-d]pyrimidin-5-yl}-2-cyanophenyl)propanoic acid]	127	1930	0.41	–
CC(C)(Cc1coc(C2(C)C(=O)Nc3nc(-c4nn(Cc5cccc(F)c5F)c5cc(Cl)ccc45)nc(N)c32)n1)C(=O)O (stereo not shown) [Example 180A, 3-(2-{4-amino-2-[6-chloro-1-(2,3-difluorobenzyl)-1H-indazol-3-yl]-5-methyl-6-oxo-6,7-dihydro-5H-pyrrolo[2,3-d]pyrimidin-5-yl}-1,3-oxazol-4-yl)-2,2-dimethyl-propanoic acid]	121	228	0.031	–
CC(Cc1ccc(C2(C)C(=O)Nc3nc(-c4nn(CCCC(F)(F)F)c5ncccc45)nc(N)c32)cc1)C(=O)O (stereo not shown) [Example 17AB, 3-(4-{4-amino-5-methyl-6-oxo-2-[1-(4,4,4-trifluorobutyl)-1H-pyrazolo[3,4-b]pyridin-3-yl]-6,7-dihydro-5H-pyrrolo[2,3-d]pyrimidin-5-yl}phenyl)-2-methylpropanoic acid]	77	3780	0.936	–
CC1(c2ccc(C(=O)O)cn2)C(=O)Nc2nc(-c3nn(Cc4ccccc4F)c4cc(Cl)ccc34)nc(N)c21 (stereo not shown) [Example 254A, 6-{4-Amino-2-[6-chloro-1-(2-fluorobenzyl)-1H-indazol-3-yl]-5-methyl-6-oxo-6,7-dihydro-5H-pyrrolo[2,3-d]pyrimidin-5-yl}pyridine-3-carboxylic acid]	123	1010	0.199	–
C[C@@]1(c2ccc(CCC(=O)O)cc2)C(=O)Nc2nc(-c3nn(Cc4ncccc4F)c4ccccc34)nc(N)c21 [Example 232B, (S)-3-{4-[4-amino-2-{1-[(3-fluoropyridin-2-yl)methyl]-1H-indazol-3-yl}-5-methyl-6-oxo-6,7-dihydro-5H-pyrrolo[2,3-d]pyrimidin-5-yl]phenyl}propanoic acid]	89.1	4150	0.085	–

Compounds with a lower EC50 (sGC α1/β1 heterodimer), results first:

Emax (sGC α1/β1 heterodimer) [%]	EC50 (sGC α1/β1 heterodimer) [nM]	Ki [1] [nM]	% Activation (sGC α1/β1 heterodimer) [%]	Structure (SMILES)
93	176	0.56	–	CC1(c2cn(C(C)(C)C(=O)O)nn2)C(=O)Nc2nc(-c3nn(CCC(F)(F)C(F)(F)F)c4cc(Cl)ccc34)nc(N)c21 (stereo not shown) [Example 30B, 2-(4-{4-amino-2-[6-chloro-1-(3,3,4,4,4-pentafluorobutyl)-1H-indazol-3-yl]-5-methyl-6-oxo-6,7-dihydro-5H-pyrrolo[2,3-d]pyrimidin-5-yl}-1H-1,2,3-triazol-1-yl)-2-methylpropanoic acid]
78.2	11	0.252	–	CC1CCC(Cn2nc(-c3nc(N)c4c(n3)NC(=O)[C@@]4(C)c3nc(CC(C)(C)C(=O)O)cs3)c3ccc(F)cc32)CC1 (single isomer, unassigned) [Example 136AA]
128	167	0.102	–	C[C@@]1(c2ccc(CCC(=O)O)cc2)C(=O)Nc2nc(-c3nn(Cc4ccccc4F)c4cc(F)ccc34)nc(N)c21 [Example 60B, (S)-3-(4-{4-amino-2-[6-fluoro-1-(2-fluorobenzyl)-1H-indazol-3-yl]-5-methyl-6-oxo-6,7-dihydro-5H-pyrrolo[2,3-d]pyrimidin-5-yl}phenyl)propanoic acid]
–	179	0.238	72.9	CC(C)(Cc1csc([C@]2(C)C(=O)Nc3nc(-c4nn(CC5CCCCO5)c5ccccc45)nc(N)c32)n1)C(=O)O (single isomer, unassigned) [Example 229AB]
124	109	0.1	–	Cc1cccc(Cn2nc(-c3nc(N)c4c(n3)NC(=O)[C@@]4(C)c3nc(CC(C)(C)C(=O)O)cs3)c3ccc(Cl)cc32)c1F [Example 188A, (S)-3-(2-{4-amino-2-[6-chloro-1-(2-fluoro-3-methyl-benzyl)-1H-indazol-3-yl]-5-methyl-6-oxo-6,7-dihydro-5H-pyrrolo[2,3-d]pyrimidin-5-yl}-1,3-thiazol-4-yl)-2,2-dimethyl-propanoic acid]
73.4	61	0.075	–	CC1(c2nc(-c3ccc(C(=O)O)cc3)cs2)C(=O)Nc2nc(-c3nn(Cc4ccccc4F)c4ncccc34)nc(N)c21 (stereo not shown) [Example 147A, 4-(2-{4-amino-2-[1-(2-fluorobenzyl)-1H-pyrazolo[3,4-b]pyridin-3-yl]-5-methyl-6-oxo-6,7-dihydro-5H-pyrrolo [2,3-d]pyrimidin-5-yl}-1,3-thiazol-4-yl)benzoic acid]
–	23	0.218	71.4	CC1CCC(Cn2nc(-c3nc(N)c4c(n3)NC(=O)[C@@]4(C)c3nc(CC(C)(C)C(=O)O)cs3)c3ccc(F)cc32)CC1 (single isomer, unassigned) [Example 136AB]
109	125	0.105	–	CC1CCC(Cn2nc(-c3nc(N)c4c(n3)NC(=O)C4(C)c3nc(CC(C)(C)C(=O)O)co3)c3ccc(Cl)cc32)CC1 (single isomer, unassigned) [Example 132AA, 3-{2-[4-amino-2-{6-chloro-1-[4-methylcyclohexylmethyl]-1H-indazol-3-yl}-5-methyl-6-oxo-6,7-dihydro-5H-pyrrolo[2,3-d]pyrimidin-5-yl]-1,3-oxazol-4-yl}-2,2-dimethylpropanoic acid]
139	96	0.151	–	CC(C)(Cc1coc(C2(C)C(=O)Nc3nc(-c4nn(Cc5cccc(F)c5)c5cc(Cl)ccc45)nc(N)c32)n1)C(=O)O (stereo not shown) [Example 175A, 3-(2-{4-amino-2-[6-chloro-1-(3-fluorobenzyl)-1H-indazol-3-yl]-5-methyl-6-oxo-6,7-dihydro-5H-pyrrolo[2,3-d]pyrimidin-5-yl}-1,3-oxazol-4-yl)-2,2-dimethyl-propanoic acid]
114	133	0.109	–	CC1(c2cccc(C(=O)O)c2)C(=O)Nc2nc(-c3nn(Cc4ccccc4F)c4cc(F)ccc34)nc(N)c21 (stereo not shown) [Example 191B, 3-{4-amino-2-[6-fluoro-1-(2-fluorobenzyl)-1H-indazol-3-yl]-5-methyl-6-oxo-6,7-dihydro-5H-pyrrolo[2,3-d]pyrimidin-5-yl} benzoic acid]
89.2	69	0.052	–	CC(C)(CCc1coc(C2(C)C(=O)Nc3nc(-c4nn(Cc5ccccc5F)c5cc(F)ccc45)nc(N)c32)n1)C(=O)O (stereo not shown) [Example 193B, 4-(2-{4-amino-2-[6-fluoro-1-(2-fluorobenzyl)-1H-indazol-3-yl]-5-methyl-6-oxo-6,7-dihydro-5H-pyrrolo[2,3-d]pyrimidin-5-yl}-1,3-oxazol-4-yl)-2,2-dimethyl-butanoic acid]
